Earlier results in paper PMC12150326 (The Journal of Organic Chemistry, 2025).
“And” between values parts separate entries of the source, which are not always exact repeats. Equal values may be shown once. Read-outs that look alike come from different tables or passages of the source.

Key:
Set-up in all cases: method as in NCI-60 database
NCI-H460 = NCI-H460 ref NCI-60 database, cited from earlier work
SW-620 = SW-620 ref NCI-60 database, cited from earlier work
LOX IMVI = LOX IMVI ref NCI-60 database, cited from earlier work
MALME-3M = MALME-3M ref NCI-60 database, cited from earlier work
SK-MEL-2 = SK-MEL-2 ref NCI-60 database, cited from earlier work
OVCAR-5 = OVCAR-5 ref NCI-60 database, cited from earlier work
SK-OV-3 = SK-OV-3 ref NCI-60 database, cited from earlier work
786-0 = 786-0 ref NCI-60 database, cited from earlier work
A498 = A498 ref NCI-60 database, cited from earlier work
UO-31 = UO-31 ref NCI-60 database, cited from earlier work
MCF7 = MCF7 ref NCI-60 database, cited from earlier work
LXFL 529 = LXFL 529 ref NCI-60 database, cited from earlier work
XF 498 = XF 498 ref NCI-60 database, cited from earlier work

COc1cc2c(c(OC)c1OC)-c1ccc(OC)c(=O)cc1[C@@H](NC(C)=O)CC2 [Colchicine, (−)-Colchicine]
GI50 (NCI-H460): 20 nM | Log10GI50 (NCI-H460): -7.65 Molar | Log10LC50 (NCI-H460): > -4.00 Molar | Log10TGI (NCI-H460; listed as 757/9): -7.12 Molar | Log10GI50 (NCI-H460; listed as 757/21): -7.62 Molar and -7.50 Molar and -7.65 Molar | GI50 (SW-620): 20 nM | Log10GI50 (SW-620): -7.66 Molar | Log10LC50 (SW-620): > -4.00 Molar | Log10GI50 (SW-620; listed as 757/1): -7.46 Molar | GI50 (LOX IMVI): 19 nM | Log10GI50 (LOX IMVI): -7.71 Molar | Log10GI50 (LOX IMVI; listed as 757/1): -7.11 Molar | Log10LC50 (MALME-3M): > -4.00 Molar | Log10GI50 (MALME-3M; listed as 757/1): -7.28 Molar | Log10GI50 (MALME-3M; listed as 757/9): -7.97 Molar | GI50 (SK-MEL-2): < 10 nM | Log10GI50 (SK-MEL-2): < -8 Molar | Log10LC50 (SK-MEL-2): > -4.00 Molar | Log10GI50 (SK-MEL-2; listed as 757/1): -7.53 Molar | Log10TGI (SK-MEL-2; listed as 757/1): < -8.00 Molar | Log10GI50 (SK-MEL-2; listed as 757/21): < -8.00 Molar | Log10TGI (SK-MEL-2; listed as 757/21): > -4.00 Molar | GI50 (OVCAR-5): 76 nM | Log10GI50 (OVCAR-5): -7.12 Molar | Log10LC50 (OVCAR-5): > -4.00 Molar | Log10GI50 (OVCAR-5; listed as 757/1): -4.48 Molar | Log10LC50 (SK-OV-3): > -4.00 Molar | Log10GI50 (SK-OV-3; listed as 757/1): -4.43 Molar | Log10TGI (SK-OV-3; listed as 757/1): -4.07 Molar and -4.21 Molar | Log10GI50 (SK-OV-3; listed as 757/9): -7.55 Molar and -7.81 Molar | Log10TGI (SK-OV-3; listed as 757/9): -7.17 Molar | Log10GI50 (SK-OV-3; listed as 757/21): -7.71 Molar and -7.65 Molar | GI50 (786-0): 78 nM | Log10GI50 (786-0): -7.11 Molar | Log10LC50 (786-0): > -4.00 Molar | Log10TGI (786-0): > -4.00 Molar | Log10GI50 (786-0; listed as 757/9): -7.54 Molar and -7.46 Molar | Log10GI50 (786-0; listed as 757/21): -7.24 Molar and -7.34 Molar and -7.11 Molar | Log10LC50 (A498): > -4.00 Molar | Log10GI50 (A498; listed as 757/1): -6.96 Molar | Log10TGI (A498; listed as 757/1): > -4.00 Molar | Log10TGI (A498; listed as 757/9): -5.50 Molar | Log10GI50 (A498; listed as 757/21): -7.68 Molar and -7.40 Molar | GI50 (UO-31): 513 nM | Log10GI50 (UO-31): -6.29 Molar | Log10LC50 (UO-31): > -4.00 Molar | Log10TGI (UO-31; listed as 757/9): -6.03 Molar | Log10TGI (UO-31; listed as 757/21): -4.19 Molar and > -4.00 Molar | GI50 (MCF7): 11 nM | Log10GI50 (MCF7): -7.94 Molar | Log10LC50 (MCF7): > -4.00 Molar | Log10GI50 (MCF7; listed as 757/9): < -8.00 Molar | Log10TGI (MCF7; listed as 757/9): -7.92 Molar | Log10GI50 (MCF7; listed as 757/21): -7.89 Molar | Log10TGI (MCF7; listed as 757/21): > -4.00 Molar | Log10LC50 (LXFL 529): > -4.00 Molar | Log10TGI (LXFL 529): > -4.00 Molar | Log10GI50 (LXFL 529; listed as 757/21): < -8.00 Molar and -7.80 Molar | Log10LC50 (XF 498): > -4.00 Molar | Log10TGI (XF 498; listed as 757/1): -4.41 Molar
